pKd: −log10 of the molar value. ≈ marks a conversion by molar mass, not a printed value. Where two headings read alike, the source gives them in different places. Bridge positions count the residues as written; N and C are the ends. Square brackets hold non-standard residues; d marks the D form. Peptide text beside a SMILES is read from it. * marks the point of attachment. X1 = CC[C@H](C)CCCCC(=O)*; Dab = NCC[C@H](N)C(=O)O
Legend:
[1] = tested on: P. aeruginosa (ATCC 27853); assay type: cell-based
Method: (§1) MIC values were obtained using broth microdilution against different bacteria following the protocols by Clinical and Laboratory Standards Institute. Specifically, each bacterium (100 μL of 0.5–1 × 10^6 CFU per ml) in Mueller Hinton media broth (Oxoid) was incubated in 96-well microtiter plates at 37 °C on a 3D orbital shaker. 100 μL of serial twofold peptide dilutions (from 100 to 0 μM) were used. Following peptide addition, absorbance (600 nm) was measured in a SpectraMax i3x multi-mode microplate reader (Molecular Devices). The lowest peptide concentrations inhibiting visible bacterial growth after 24 h at 37 °C was defined as MICs. All tests were performed in triplicate.

E. coli (ATCC 15597) = assay type: cell-based
Method: as §1

B. subtilis (ATCC 6633) = assay type: cell-based
Method: as §1

[2] = tested on: K. pneumoniae (NCTC 5055); assay type: cell-based
Method: as §1

S. aureus (ATCC 6538) = assay type: cell-based
Method: as §1

S. typhimurium (6192) = assay type: cell-based
Method: as §1

M. luteus (ATCC 49732) = assay type: cell-based
Method: as §1

Human erythrocytes = assay: Hemolysis assay; assay type: cell-based
Method: For hemolysis measurements 10% (vol/vol) suspensions of human erythrocytes with peptides were used. Phosphate buffer saline (PBS, 10 mM, pH 7.2) was used to rinse human red blood cells (4x) using repeated centrifugation and re-suspension (3 min, 3000 × g). The cells were incubated for 1 h at room temperature in deionized water (fully hemolysed control), with peptide in PBS or just PBS, which was followed by centrifugation (5 min, 10000 × g). The obtained supernatant was then separated from the pellet, and absorbance (550 nm) was measured in a SpectraMax i3x multi-mode microplate reader (Molecular Devices). Absorbance obtained for the suspension that was treated with deionized water gave complete (100%) hemolysis. Table S1 summarises the results, with the values corresponding to % hemolysis for peptide at 250 μM. All tests were performed in triplicate.

[3] = target: DLPC/DLPG (3:1 molar ratio) unilamellar vesicles; assay: Isothermal titration calorimetry, anionic vesicles; conditions: ITC, peptide (500 μM) titrated into DLPC/DLPG (3:1) vesicles (380 μM total lipid), 25 °C, one-set binding model, duplicate; read-out: dissociation constant (KD)
Method: The lipids used for the assembly of unilamellar vesicles were from Avanti Polar Lipids: 1,2-dilauroylphosphatidylcholine (DLPC) was used for zwitterionic vesicles, while its mixture with 1,2-dilauroyl-sn-glycero-3-phospho-(1’-rac-glycerol) (DLPG) at a 3:1 molar ratio was used for anionic vesicles. After weighting up the lipid aliquots were dissolved in chloroform and dried under a nitrogen stream until a thin film was formed. The obtained film was subjected to hydration in 10 mM phosphate buffer (pH 7.4), which was followed by vortexing (1x, 2 min) and sonication (1x, 30 min). A hand-held extruder (Avanti Polar lipids) was used to extrude the resulting suspension (29x, polycarbonate filter, 0.05 μm) until a clear solution containing small unilamellar vesicles (SUV) was obtained. The SUVs were then analysed (50 nm) using a Zetasizer Nano (ZEN3600, Malvern Instruments, UK) and re-suspended to a final concentration of 1 mg/mL. The measurements were performed using a low volume disposable cuvette at 25°C. […]
A Microcal isothermal titration calorimeter-200 (ITC-200) was used to carry out all ITC experiments. […] Binding isotherms were recorded for peptides (500 μM) titrated into unilamellar phospholipid vesicles (380 μM, total lipid) in the cell. […]

[4] = K. pneumoniae (NCTC 5055), broth microdilution (CLSI), Mueller Hinton broth, 24 h at 37 °C, triplicate

| pKd [3] | Structure (SMILES) | Minimum inhibitory concentration ([1]; ATCC 27853, 24 h) [µM] | Minimum inhibitory concentration (E. coli (ATCC 15597); ATCC 15597, 24 h) [µM] | Minimum inhibitory concentration (B. subtilis (ATCC 6633); ATCC 6633, 24 h) [µM] | Minimum inhibitory concentration ([2]; NCTC 5055, 24 h) [µM] | Minimum inhibitory concentration (S. aureus (ATCC 6538); ATCC 6538, 24 h) [µM] | Minimum inhibitory concentration (S. typhimurium (6192); 6192, 24 h) [µM] | Minimum inhibitory concentration (M. luteus (ATCC 49732); ATCC 49732, 24 h) [µM] | % hemolysis, at 250 μM (Human erythrocytes; 250 µM, pH 7.2) [%] | hemolytic activity (in words) (Human erythrocytes) | Minimum inhibitory concentration ([1]; P. aeruginosa (ATCC 27853), broth microdilution (CLSI), Mueller Hinton broth, 24 h at 37 °C, triplicate) [µM] | Minimum inhibitory concentration (E. coli (ATCC 15597); E. coli (ATCC 15597), broth microdilution (CLSI), Mueller Hinton broth, 0.5–1 × 10^6 CFU per ml, 24 h at 37 °C, absorbance 600 nm, triplicate) [µM] | Minimum inhibitory concentration (B. subtilis (ATCC 6633); B. subtilis (ATCC 6633), broth microdilution (CLSI), Mueller Hinton broth, 24 h at 37 °C, triplicate) [µM] | Minimum inhibitory concentration [2, 4] [µM] | Minimum inhibitory concentration (S. aureus (ATCC 6538); S. aureus (ATCC 6538), broth microdilution (CLSI), Mueller Hinton broth, 24 h at 37 °C, triplicate) [µM] | Minimum inhibitory concentration (S. typhimurium (6192); S. typhimurium (6192), broth microdilution (CLSI), Mueller Hinton broth, 24 h at 37 °C, triplicate) [µM] | Minimum inhibitory concentration (M. luteus (ATCC 49732); M. luteus (ATCC 49732), broth microdilution (CLSI), Mueller Hinton broth, 24 h at 37 °C, triplicate) [µM] | % hemolysis, at 250 μM (Human erythrocytes; peptide at 250 μM, 10% (vol/vol) human erythrocytes in PBS pH 7.2, 1 h at room temperature, absorbance 550 nm, deionized water = 100%, triplicate) [%] |
| --- | --- | --- | --- | --- | --- | --- | --- | --- | --- | --- | --- | --- | --- | --- | --- | --- | --- | --- |
| – | CC(C)C[C@H](NC(=O)[C@H](CC(C)C)NC(=O)[C@H](CCCNC(=N)N)NC(=O)[C@H](CC(C)C)NC(=O)[C@H](CCCCN)NC(=O)[C@H](CC(C)C)NC(=O)[C@H](CCCNC(=N)N)NC(=O)[C@H](CC(C)C)NC(=O)[C@H](CC(C)C)NC(=O)[C@@H](N)CCCNC(=N)N)C(N)=O [bienK10] (H-RLLRLKLRLL-NH2; N-terminus assumed) | 25 (≈ 32.3 µg/mL) | 3 (≈ 3.88 µg/mL) | 6 (≈ 7.76 µg/mL) | > 50 | 25 (≈ 32.3 µg/mL) | 50 (≈ 64.6 µg/mL) | 1.5 (≈ 1.94 µg/mL) | 0 | – | – | – | – | – | – | – | – | – |
| – | CC(C)C[C@H](NC(=O)[C@H](CC(C)C)NC(=O)[C@H](CCCNC(=N)N)NC(=O)[C@H](CC(C)C)NC(=O)[C@H](C)NC(=O)[C@H](CC(C)C)NC(=O)[C@H](CCCNC(=N)N)NC(=O)[C@H](CC(C)C)NC(=O)[C@H](CC(C)C)NC(=O)[C@@H](N)CCCNC(=N)N)C(N)=O [bienA10] (H-RLLRLALRLL-NH2; N-terminus assumed) | 25 (≈ 30.9 µg/mL) | 3 (≈ 3.71 µg/mL) | 1.5 (≈ 1.85 µg/mL) | 3 (≈ 3.71 µg/mL) | 3 (≈ 3.71 µg/mL) | 6 (≈ 7.41 µg/mL) | 1.5 (≈ 1.85 µg/mL) | 25 | – | – | – | – | – | – | – | – | – |
| 5.67 | CC(C)C[C@H](NC(=O)[C@H](CCCNC(=N)N)NC(=O)[C@H](CC(C)C)NC(=O)[C@H](CCCCN)NC(=O)[C@H](CC(C)C)NC(=O)[C@H](CCCNC(=N)N)NC(=O)[C@H](CC(C)C)NC(=O)[C@H](CC(C)C)NC(=O)[C@@H](N)CCCNC(=N)N)C(N)=O [bienK9] (H-RLLRLKLRL-NH2; N-terminus assumed) | 6 (≈ 7.08 µg/mL) | 3 (≈ 3.54 µg/mL) | 3 (≈ 3.54 µg/mL) | > 50 | 12 (≈ 14.2 µg/mL) | 50 (≈ 59 µg/mL) | 1.5 (≈ 1.77 µg/mL) | 0 | – | – | – | – | – | – | – | – | – |
| – | CC(C)C[C@H](NC(=O)[C@H](CC(C)C)NC(=O)[C@H](CCCNC(=N)N)NC(=O)[C@H](CC(C)C)NC(=O)[C@H](CCCCN)NC(=O)[C@H](CC(C)C)NC(=O)[C@H](CCCNC(=N)N)NC(=O)[C@H](CC(C)C)NC(=O)[C@H](CC(C)C)NC(=O)[C@@H](N)CCCNC(=N)N)C(=O)N[C@@H](CCCNC(=N)N)C(N)=O [bienK11] (H-RLLRLKLRLLR-NH2) | 12 (≈ 17.4 µg/mL) | 3 (≈ 4.35 µg/mL) | 3 (≈ 4.35 µg/mL) | > 50 | 12 (≈ 17.4 µg/mL) | 50 (≈ 72.4 µg/mL) | 1.5 (≈ 2.17 µg/mL) | 0 | non-hemolytic | – | – | – | – | – | – | – | – |
| – | CC[C@H](C)CCCCC(=O)N[C@@H](CCN)C(=O)N[C@H](C(=O)N[C@@H](CCN)C(=O)N[C@H]1CCNC(=O)[C@H]([C@@H](C)O)NC(=O)[C@H](CCN)NC(=O)[C@H](CCN)NC(=O)[C@H](CC(C)C)NC(=O)[C@@H](Cc2ccccc2)NC(=O)[C@H](CCN)NC1=O)[C@@H](C)O [polymyxin B, reference compound] (X1-[Dab]T[Dab][Dab][Dab][dF]L[Dab][Dab]T; lactam 4-C (inferred); N-terminus assumed) | – | – | – | – | – | – | – | – | – | 1.5 (≈ 1.81 µg/mL) | 1.5 (≈ 1.81 µg/mL) | 3 (≈ 3.61 µg/mL) | 3 (≈ 3.61 µg/mL) | 25 (≈ 30.1 µg/mL) | 1.5 (≈ 1.81 µg/mL) | 1.5 (≈ 1.81 µg/mL) | 5 |
| 6.77 | CC(C)C[C@H](NC(=O)[C@H](CCCNC(=N)N)NC(=O)[C@H](CC(C)C)NC(=O)[C@H](C)NC(=O)[C@H](CC(C)C)NC(=O)[C@H](CCCNC(=N)N)NC(=O)[C@H](CC(C)C)NC(=O)[C@H](CC(C)C)NC(=O)[C@@H](N)CCCNC(=N)N)C(N)=O [bienA9] (H-RLLRLALRL-NH2; N-terminus assumed) | 50 (≈ 56.1 µg/mL) | 6 (≈ 6.73 µg/mL) | 6 (≈ 6.73 µg/mL) | 50 (≈ 56.1 µg/mL) | 25 (≈ 28.1 µg/mL) | 50 (≈ 56.1 µg/mL) | 1.5 (≈ 1.68 µg/mL) | 25 | – | – | – | – | – | – | – | – | – |
| – | CC[C@H](C)[C@H](NC(=O)CN)C(=O)NCC(=O)N[C@@H](C)C(=O)N[C@H](C(=O)N[C@@H](CC(C)C)C(=O)N[C@@H](CCCCN)C(=O)N[C@H](C(=O)N[C@@H](CC(C)C)C(=O)N[C@H](C(=O)N[C@H](C(=O)NCC(=O)N[C@@H](CC(C)C)C(=O)N1CCC[C@H]1C(=O)N[C@@H](C)C(=O)N[C@@H](CC(C)C)C(=O)N[C@H](C(=O)N[C@@H](CO)C(=O)N[C@@H](Cc1c[nH]c2ccccc12)C(=O)N[C@H](C(=O)N[C@@H](CCCCN)C(=O)N[C@@H](CCCNC(=N)N)C(=O)N[C@@H](CCCCN)C(=O)N[C@@H](CCCNC(=N)N)C(=O)N[C@@H](CCC(N)=O)C(=O)N[C@@H](CCC(N)=O)C(N)=O)[C@@H](C)CC)[C@@H](C)CC)[C@@H](C)O)[C@@H](C)O)C(C)C)C(C)C [melittin, reference compound] | – | – | – | – | – | – | – | – | – | – | – | – | 3 (≈ 8.54 µg/mL) | – | – | – | – |
| – | CC(C)C[C@H](NC(=O)[C@H](C)NC(=O)[C@H](CC(C)C)NC(=O)[C@H](CCCNC(=N)N)NC(=O)[C@H](CC(C)C)NC(=O)[C@H](CC(C)C)NC(=O)[C@@H](N)CCCNC(=N)N)C(=O)N[C@@H](CCCNC(=N)N)C(=O)N[C@@H](CC(C)C)C(=O)N[C@@H](CC(C)C)C(=O)N[C@@H](CCCNC(=N)N)C(N)=O [bienA11] (H-RLLRLALRLLR-NH2; N-terminus assumed) | 3 (≈ 4.18 µg/mL) | 3 (≈ 4.18 µg/mL) | 6 (≈ 8.35 µg/mL) | 6 (≈ 8.35 µg/mL) | 3 (≈ 4.18 µg/mL) | 12 (≈ 16.7 µg/mL) | 1.5 (≈ 2.09 µg/mL) | 25 | hemolytic | – | – | – | – | – | – | – | – |
